Source: US20240343732A1, “COMPOUNDS FOR DEGRADATION OF CYCLIN-DEPENDENT KINASE 7(CDK7)” (QURIENT CO., LTD., priority 2021, published 2024)

What was measured:
CDK7/CycH/MNAT1 = target: T1, CDK7/CycH/MNAT1 (Homo sapiens, UniProt P50613); assay: Binding assay (FRET, LanthaScreen Eu, Tracer236) for CDK7; settings: read-out: CDK7 IC50 (enzyme binding assay)
T1 construct: His; purchased Invitrogen PR6749B
Procedure: (§1) Inhibition activity of compound to CDK7 kinase was tested in a binding assay which was applied to the FRET (fluorescence resonance energy transfer) principle from the europium (Eu) donor fluorophore to the acceptor fluorophore on the kinase tracer. Test compounds were made to 1.125 mM of compound solution, and then this compound solution 4-fold serial diluted in 8 steps using an automated liquid handler (JANUS™, PerkinElmer). 80 nL/well of each diluted compound solution was added into the 384-well plate (Greiner, Cat #784075) first and 7.5 ul/well of working solution [5 nM of CDK7/CycH/MNAT1 (Invitrogen, Cat #PR6749B), 4 nM of Biotin anti-His Tag Antibody (Invitrogen, Cat #PV6090), and LanthaScreen® Eu-Streptavidin (Invitrogen, Cat #PV6025)] was added. After mixing the solution well, the same volume with the working solution of Tracer236 (Invitrogen, Cat #PV5592) was added into each well in the plate. The plate was incubated for 60 minutes at room temperature and then all the fluorescence were measured using Envision leader (Perkin Elmer, USA) [Laser as excitation light; […] as the first and the second emission filter]. Data was analysed using XL Fit software.
(§2) All of the synthesized compounds were screened in the above-mentioned assay procedure. To identify the inhibition activity of compounds for other CDKs including CDK1 (Invitrogen, Cat #PR4768C), CDK2 (Invitrogen, Cat #PR4448B) and CDK5 (Invitrogen, Cat #PR8543B) were tested using the same protocol under reasonable concentration of Tracer236 and kinases for each assay. The formula for the assay buffer summarized in below table.

CDK1 = target: T2, CDK1 (Homo sapiens, UniProt P06493); assay: Binding assay (FRET, LanthaScreen Eu, Tracer236) for CDK1; settings: for IC50: read-out: CDK1 IC50 (enzyme binding assay)
T2 construct: His; purchased Invitrogen PR4768C
T2 sequence (P06493 whole entry): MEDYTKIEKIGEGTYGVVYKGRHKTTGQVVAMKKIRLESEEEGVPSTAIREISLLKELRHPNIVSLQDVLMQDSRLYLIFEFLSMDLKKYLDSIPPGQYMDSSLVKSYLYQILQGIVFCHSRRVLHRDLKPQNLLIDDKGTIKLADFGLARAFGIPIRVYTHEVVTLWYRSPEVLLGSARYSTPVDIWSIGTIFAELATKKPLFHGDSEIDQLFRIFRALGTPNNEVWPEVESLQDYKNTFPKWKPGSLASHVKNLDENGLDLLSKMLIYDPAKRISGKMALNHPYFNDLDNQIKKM
T2 sequence (P14635 whole entry partner): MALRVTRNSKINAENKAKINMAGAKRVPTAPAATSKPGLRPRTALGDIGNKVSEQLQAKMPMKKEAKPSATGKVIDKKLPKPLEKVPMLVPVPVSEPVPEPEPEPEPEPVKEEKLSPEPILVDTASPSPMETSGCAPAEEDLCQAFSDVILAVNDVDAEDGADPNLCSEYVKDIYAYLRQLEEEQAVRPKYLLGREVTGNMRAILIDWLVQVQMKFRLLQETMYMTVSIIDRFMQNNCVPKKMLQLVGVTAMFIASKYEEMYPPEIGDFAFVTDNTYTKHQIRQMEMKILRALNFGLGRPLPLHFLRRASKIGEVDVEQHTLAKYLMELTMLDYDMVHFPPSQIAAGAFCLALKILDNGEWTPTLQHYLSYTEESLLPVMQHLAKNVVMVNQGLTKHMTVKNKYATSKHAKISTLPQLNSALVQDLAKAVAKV
Procedure: as §1, §2

CDK2 = target: T3, CDK2 (Homo sapiens, UniProt P24941); assay: Binding assay (FRET, LanthaScreen Eu, Tracer236) for CDK2; settings: for IC50: read-out: CDK2 IC50 (enzyme binding assay)
T3 construct: His; purchased Invitrogen PR4448B
Procedure: as §1, §2

CDK5 = target: T4, CDK5 (Homo sapiens, UniProt Q00535); assay: Binding assay (FRET, LanthaScreen Eu, Tracer236) for CDK5; settings: for IC50: read-out: CDK5 IC50 (enzyme binding assay)
T4 construct: His; purchased Invitrogen PR8543B
T4 sequence (Q00535 whole entry): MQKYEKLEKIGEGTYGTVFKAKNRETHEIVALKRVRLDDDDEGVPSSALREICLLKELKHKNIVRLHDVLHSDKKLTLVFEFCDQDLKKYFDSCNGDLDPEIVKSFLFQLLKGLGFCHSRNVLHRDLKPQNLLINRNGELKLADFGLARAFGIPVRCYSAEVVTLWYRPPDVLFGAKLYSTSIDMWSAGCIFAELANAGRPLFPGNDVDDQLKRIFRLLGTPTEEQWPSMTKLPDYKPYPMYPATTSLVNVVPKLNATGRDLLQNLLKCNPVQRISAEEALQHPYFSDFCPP
T4 sequence (Q15078 99-307 partner limits assumed): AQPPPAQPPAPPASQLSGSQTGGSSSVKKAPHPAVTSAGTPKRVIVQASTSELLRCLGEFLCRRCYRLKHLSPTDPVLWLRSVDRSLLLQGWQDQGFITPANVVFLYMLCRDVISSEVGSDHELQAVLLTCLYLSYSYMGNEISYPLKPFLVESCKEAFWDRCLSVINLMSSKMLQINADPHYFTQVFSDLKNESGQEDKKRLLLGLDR
Procedure: as §1, §2

T1 sequence (P50613 whole entry): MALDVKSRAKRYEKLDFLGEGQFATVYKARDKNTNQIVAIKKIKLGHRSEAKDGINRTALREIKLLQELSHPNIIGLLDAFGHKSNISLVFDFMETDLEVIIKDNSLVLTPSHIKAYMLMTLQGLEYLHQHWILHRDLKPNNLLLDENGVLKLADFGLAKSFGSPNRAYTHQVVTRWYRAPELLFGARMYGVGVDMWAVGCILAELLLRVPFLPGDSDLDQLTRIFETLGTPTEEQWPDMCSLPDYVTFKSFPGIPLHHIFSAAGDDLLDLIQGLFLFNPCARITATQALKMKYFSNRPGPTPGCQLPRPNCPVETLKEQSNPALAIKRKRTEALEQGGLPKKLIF
T1 sequence (P51946 whole entry partner): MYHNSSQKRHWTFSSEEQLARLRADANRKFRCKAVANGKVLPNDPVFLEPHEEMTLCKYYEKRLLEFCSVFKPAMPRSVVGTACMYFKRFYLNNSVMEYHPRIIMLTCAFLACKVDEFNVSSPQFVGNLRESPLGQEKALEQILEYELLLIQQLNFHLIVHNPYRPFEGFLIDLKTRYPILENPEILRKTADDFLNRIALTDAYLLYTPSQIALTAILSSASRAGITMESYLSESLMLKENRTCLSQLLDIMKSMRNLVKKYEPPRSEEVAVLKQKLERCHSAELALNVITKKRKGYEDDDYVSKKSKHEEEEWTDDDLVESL
T1 sequence (P51948 whole entry partner): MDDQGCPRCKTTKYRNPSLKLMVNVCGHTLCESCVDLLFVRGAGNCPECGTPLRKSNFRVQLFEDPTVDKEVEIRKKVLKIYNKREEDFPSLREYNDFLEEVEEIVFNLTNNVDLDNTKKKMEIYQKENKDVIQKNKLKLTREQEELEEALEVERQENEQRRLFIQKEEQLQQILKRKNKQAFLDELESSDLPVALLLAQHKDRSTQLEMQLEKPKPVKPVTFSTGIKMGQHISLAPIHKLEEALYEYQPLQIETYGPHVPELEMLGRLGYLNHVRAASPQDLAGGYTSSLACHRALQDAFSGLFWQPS

Structure (SMILES)	IC50 (CDK7/CycH/MNAT1) [nM]	CDK1/CDK7: Selectivity of CDK7 inhibition over CDK1 inhibition (CDK1)	IC50 (CDK1) [nM]	CDK2/CDK7: Selectivity of CDK7 inhibition over CDK2 inhibition (CDK2)	IC50 (CDK2) [nM]	CDK5/CDK7: Selectivity of CDK7 inhibition over CDK5 inhibition (CDK5)	IC50 (CDK5) [nM]
CC(C)c1cnn2c(NCc3ccccc3-c3nccc4cc(NC(=O)/C=C/CN(C)CCOCCNC(=O)CNc5cccc6c5C(=O)N(C5CCC(=O)NC5=O)C6=O)ccc34)nc(N3CCC(N)CC3)nc12 (stereo not drawn) [Compound 1]	≤ 100	A (A indicates [fold] > 500)	> 1000	A (A indicates [fold] > 500)	> 1000	A (A indicates [fold] > 500)	> 1000
CC(C)c1cnn2c(NCc3ccccc3-c3nccc4cc(NC(=O)/C=C/CN(C)CCOCCOCCNC(=O)CNc5cccc6c5C(=O)N(C5CCC(=O)NC5=O)C6=O)ccc34)nc(N3CCC(N)CC3)nc12 (stereo not drawn) [Compound 2]	≤ 100	A (A indicates [fold] > 500)	> 1000	A (A indicates [fold] > 500)	> 1000	A (A indicates [fold] > 500)	> 1000
CC(C)c1cnn2c(NCc3ccccc3-c3nccc4cc(NC(=O)/C=C/CN(C)CCOCCOCCOCCNC(=O)CNc5cccc6c5C(=O)N(C5CCC(=O)NC5=O)C6=O)ccc34)nc(N3CCC(N)CC3)nc12 (stereo not drawn) [Compound 3]	≤ 100	A (A indicates [fold] > 500)	> 1000	A (A indicates [fold] > 500)	> 1000	A (A indicates [fold] > 500)	> 1000
C=C(F)C(=O)Nc1ccc2c(-c3ccccc3CNc3nc(NC[C@H]4CCN(CCOCCOCCNC(=O)CNc5cccc6c5C(=O)N(C5CCC(=O)NC5=O)C6=O)C[C@@H]4O)nc4c(C(C)C)cnn34)nccc2c1 (stereo partly drawn) [Compound 4]	100 to 1000	A (A indicates [fold] > 500)	> 1000	C (C indicates [fold] ≤ 50)	> 1000	B (B indicates 50 < [fold] ≤ 500)	> 1000
CC(C)c1cnn2c(NCc3ccccc3-c3nccc4cc(N)ccc34)nc(O[C@@H]3CCCN(CCOCCOCCNC(=O)CNc4cccc5c4C(=O)N(C4CCC(=O)NC4=O)C5=O)C3)nc12 (stereo partly drawn) [Compound 5]	≤ 100	A (A indicates [fold] > 500)	> 1000	A (A indicates [fold] > 500)	> 1000	A (A indicates [fold] > 500)	> 1000
CC(C)c1cnn2c(NCc3ccccc3-c3nccc4cc(N)ccc34)nc(O[C@@H]3CCCN(CCOCCOCCOCCNC(=O)CNc4cccc5c4C(=O)N(C4CCC(=O)NC4=O)C5=O)C3)nc12 (stereo partly drawn) [Compound 6]	≤ 100	A (A indicates [fold] > 500)	> 1000	A (A indicates [fold] > 500)	> 1000	A (A indicates [fold] > 500)	> 1000
